Laboratory results taken from the Kinase Knowledgebase extract (Sharma et al. 2016).

The compounds below were run against EGFR (UniProt P00533) (assay: Inhibition of EGFR Kinase Activity).
Sequence of EGFR (P00533 whole entry, looked up): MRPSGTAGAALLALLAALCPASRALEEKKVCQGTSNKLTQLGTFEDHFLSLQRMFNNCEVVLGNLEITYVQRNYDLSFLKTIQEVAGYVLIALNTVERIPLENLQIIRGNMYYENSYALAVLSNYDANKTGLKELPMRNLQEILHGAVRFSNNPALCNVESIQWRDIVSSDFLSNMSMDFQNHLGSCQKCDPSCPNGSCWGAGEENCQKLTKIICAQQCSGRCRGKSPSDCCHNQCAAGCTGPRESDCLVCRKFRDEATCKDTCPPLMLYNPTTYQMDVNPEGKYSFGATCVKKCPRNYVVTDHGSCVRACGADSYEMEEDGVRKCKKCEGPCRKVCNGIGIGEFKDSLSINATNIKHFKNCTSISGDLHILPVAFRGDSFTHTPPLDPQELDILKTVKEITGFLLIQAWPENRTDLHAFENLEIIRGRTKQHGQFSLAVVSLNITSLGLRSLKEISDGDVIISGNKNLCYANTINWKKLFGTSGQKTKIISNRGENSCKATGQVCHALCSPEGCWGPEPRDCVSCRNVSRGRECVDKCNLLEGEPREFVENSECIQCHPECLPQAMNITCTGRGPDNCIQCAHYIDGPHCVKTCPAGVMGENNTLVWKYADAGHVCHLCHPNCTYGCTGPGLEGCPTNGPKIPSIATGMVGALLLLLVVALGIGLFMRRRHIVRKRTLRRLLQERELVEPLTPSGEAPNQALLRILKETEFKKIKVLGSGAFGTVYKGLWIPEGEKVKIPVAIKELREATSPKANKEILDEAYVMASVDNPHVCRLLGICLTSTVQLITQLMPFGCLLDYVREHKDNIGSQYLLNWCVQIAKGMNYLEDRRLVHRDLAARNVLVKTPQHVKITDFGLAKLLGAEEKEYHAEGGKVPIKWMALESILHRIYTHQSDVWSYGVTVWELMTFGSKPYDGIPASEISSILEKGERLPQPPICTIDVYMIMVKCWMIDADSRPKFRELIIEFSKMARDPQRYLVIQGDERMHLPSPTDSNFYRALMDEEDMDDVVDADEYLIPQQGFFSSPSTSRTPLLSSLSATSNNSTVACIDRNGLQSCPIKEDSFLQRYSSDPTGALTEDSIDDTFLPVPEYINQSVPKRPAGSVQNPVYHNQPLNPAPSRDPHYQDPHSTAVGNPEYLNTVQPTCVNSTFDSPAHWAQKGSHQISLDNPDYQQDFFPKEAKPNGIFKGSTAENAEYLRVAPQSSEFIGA

IC50, < 50 µM:
C=CC(=O)Nc1cccc(Nc2ncnc(Nc3ccc(S(=O)(=O)c4ccccc4)cc3)n2)c1
C=CC(=O)Nc1cccc(Nc2ncnc(N(CC)c3cc(OC)c(OC)c(OCCN4CCOCC4)c3)n2)c1
C=CC(=O)Nc1cc(Nc2ncnc(N(C)c3ccc(OCc4ccccc4)c(Cl)c3)n2)ccc1OCCCC1CCN(C)CC1
C=CC(=O)Nc1cccc(Nc2ncnc(N(CC)c3ccc(OCCC)c(OCCC)c3)n2)c1
C=CC(=O)Nc1ccc(Nc2ncnc(N(C)c3ccc(OCc4ccccc4)c(Cl)c3)n2)cc1
C=CC(=O)Nc1ccc(Nc2ncnc(NN3CCCc4cc(C)ccc43)n2)cc1
C=CC(=O)Nc1ccc(Nc2ncnc(N(CC)c3cccc(S(=O)(=O)c4ccc([N+](=O)[O-])cc4)c3)n2)cc1
C=CC(=O)N(CCCN1CCOCC1)c1cccc(Nc2ncnc(Nc3ccc(OC)c(OC)c3)n2)c1
C=CCN(c1ccc(OCC)c(OCC)c1)c1ncnc(Nc2cccc(NC(=O)C#CC)c2)n1
C=CC(=O)Nc1cccc(Nc2ncnc(Nc3cc(OC)c(OC)c(OCCN4CCOCC4)c3)n2)c1
C=CC(=O)Nc1ccc(Nc2ncnc(N(CC)c3ccc(OCCOC)c(OC)c3)n2)cc1
C=CC(=O)Nc1cccc(Nc2ncnc(Nc3cccc(CC(=O)OC)c3)n2)c1
C=CC(=O)Nc1ccc(Nc2ncnc(Nn3c(=O)[nH]c4ccccc43)n2)cc1
CC#CC(=O)Nc1cccc(Nc2ncnc(N(C)c3ccc(OCc4ccccc4)cc3)n2)c1
C=CC(=O)Nc1ccc(Nc2ncnc(Nc3cccc(CC(=O)OC)c3)n2)cc1
C=CC(=O)Nc1cccc(Nc2ncnc(Nc3cccc(S(=O)(=O)c4ccc([N+](=O)[O-])cc4)c3)n2)c1
CC#CC(=O)Nc1cc(Nc2ncnc(Nc3cccc(Cl)c3)n2)ccc1OCCCC1CCN(C)CC1
C=CCN(c1ncnc(Nc2cccc(NC(=O)C#CC)c2)n1)c1cc(Cl)ccc1C
C=CC(=O)Nc1cccc(Nc2ncnc(N(CC)c3ccc(C(=O)OC)cc3)n2)c1
C=CC(=O)Nc1cccc(Nc2ncnc(Nc3ccc(OCc4cccc(C(F)(F)F)c4)c(OC)c3)n2)c1
C=CCN(c1cccc(C(N)=O)c1)c1ncnc(Nc2cccc(NC(=O)C=C)c2)n1
C=CC(=O)Nc1cccc(Nc2ncnc(Nc3cc(OC)c(OC)c(OC)c3)n2)c1
C=C/C=C/C(=O)Nc1cccc(Nc2ncnc(NC3CC3c3ccc(Cl)cc3)n2)c1 (stereo not drawn)
CC#CC(=O)Nc1cccc(Nc2ncnc(N(C)c3cccc4ccccc34)n2)c1
C=CCN(c1cccc(C(N)=O)c1)c1ncnc(Nc2ccc(NC(=O)C=C)cc2)n1
C=CCN(c1ncnc(Nc2ccc(NC(=O)C=C)cc2)n1)c1cc(Cl)ccc1C
C=CC(=O)Nc1cc(Nc2ncnc(N(C)c3ccc4c(cnn4Cc4ccccc4)c3)n2)ccc1OC
C=CCN(c1cccc(S(=O)(=O)c2ccc([N+](=O)[O-])cc2)c1)c1ncnc(Nc2ccc(NC(=O)C=C)cc2)n1
C=CC(=O)Nc1ccc(Nc2ncnc(N(C)c3cccc4ccccc34)n2)cc1
C=CC(=O)Nc1cccc(Nc2ncnc(N(C)c3ccc(OCc4ccccc4)cc3)n2)c1
C=CC(=O)n1ncc2ccc(Nc3ncnc(Nc4ccc5c(cnn5Cc5ccccc5)c4)n3)cc21
CC#CC(=O)Nc1cccc(Nc2ncnc(NC3CC3c3ccc(Cl)cc3)n2)c1 (stereo not drawn)
C=CC(=O)Nc1cccc(Nc2ncnc(N(CC)c3ccc(OC)c(OCCOC)c3)n2)c1
